Assay results from US7329634B2, “3-Phenyl substituted 3-substituted-4ketolactams and ketolactones” (Bayer CropScience AG, priority 2003, dated 2008).

Key:
Meloidogyne incognita = assay: Meloidogyne test; type: in vivo; settings: 20 ppm; nematicidal action by formation of galls on lettuce roots; 100% = no galls
Protocol: • Solvents: 78 parts by weight of acetone • 1.5 parts by weight of dimethylformamide • Emulsifier: 0.5 part by weight of alkylaryl polyglycol ether
To produce a suitable preparation of active compound, 1 part by weight of active compound is mixed with the stated amounts of solvent and emulsifier, and the concentrate is diluted with water to the desired concentration.
Vessels are filled with sand, solution of active compound, Meloidogyne incognita egg/larvae suspension and lettuce seeds. The lettuce seeds germinate and the plants develop. On the roots, galls develop.
After the desired period of time, the nematicidal action is determined in % by the formation of galls. 100% means that no galls have been found; 0% means that the number of galls on the treated plants corresponds to that of the untreated control.

[1] = tested on: greenhouse red spider mite (Tetranychus urticae); assay: Tetranychus test (OP-resistant/spray treatment); type: in vivo; settings: 100 ppm; spray treatment of bean leaf discs (Phaseolus vulgaris); OP-resistant
Protocol: Tetranychus Test (OP-Resistant/Spray Treatment)
• Solvents: 78 parts by weight of acetone • 1.6 parts by weight of dimethylformamide • Emulsifier: 0.5 part by weight of alkylaryl polyglycol ether
To produce a suitable preparation of active compound, 1 part by weight of active compound is mixed with the stated amounts of solvent and emulsifier, and the concentrate is diluted with emulsifier-containing water to the desired concentration.
Discs of the leaves of beans (Phaseolus vulgaris) which are infested by all stages of the greenhouse red spider mite (Tetranychus urticae) are sprayed with a preparation of active compound of the desired concentration.
After the desired period of time, the activity in % is determined. 100% means that all spider mites have been killed; 0% means that none of the spider mites have been killed.

SMILES: CCc1cc(Br)cc(Br)c1C1(Cl)C(=O)NC(C)(C)C1=O (centres unmarked) [Ex. I-1-1]
- Effect in % after 14d (Meloidogyne incognita): 100%
- Kill rate in % after 4d [1]: 80%
